What was measured:
C. elegans [1] = assay: Rescue of C. elegans delta-12 FAT RNAi feeding phenotype by fatty acid methyl esters; type: cell-based, Caenorhabditis elegans; settings: 3 mM added to the NGM media
Description: RNAi by feeding: C. elegans can be grown on lawns of E. coli genetically engineered to produce double stranded RNA (dsRNA) designed to inhibit delta-12 fat-2 expression. Briefly, E. coli were transformed with a genomic fragment of a portion of the C. elegans fat-2 gene sequence, specifically a fragment 651 nucleotides long, containing the entire first exon and terminating just before the conserved intron splice junction between the first exon and first intron. This construct encodes approximately the first 217 amino acids of the C. elegans delta-12 FAT gene. The 651 nucleotide genomic fragment was cloned into an E. coli expression vector between opposing T7 polymerase promoters. The clone was then transformed into a strain of E. coli that carries an IPTG-inducible T7 polymerase. As a control, E. coli was transformed with a gene encoding the Green Fluorescent Protein (GFP). Feeding RNAi was initiated from C. elegans eggs or from C. elegans […]. […] When feeding RNAi was started from C. elegans L4 larvae at 23° C. on NGM plates containing IPTG and E. coli expressing the C. elegans […] […] The sequence of the fat-2 gene is of sufficiently high complexity (i.e., unique) such that the RNAi is not likely to represent cross reactivity with other genes. […]

C. elegans [2] = assay: Nematicidal activity of single fatty acid methyl ester emulsions against Caenorhabditis elegans (Example 4); type: cell-based
Experimental: Mixed stage Caenorhabditis elegans were washed off plates seeded with OP50 bacteria using M9 solution. 250 μl of the M9 solution, which contained about 50 worms, was pipetted into each well of a 24-well plate.
(§1) Fatty acid methyl ester emulsions were prepared following the teachings of Kim et al (U.S. Pat. No. 5,698,592). Briefly, 1 ml 1% stock solution emulsions were prepared by mixing 10 μl of fatty acid methyl ester with 20 μl of the surfactant Igepal CO 630 in a 1.5 ml eppendorf tube. After careful mixing of fatty acid and Igepal CO 630, 850 μl of ddH20 was added and mixed by gentle pipetting until a homogeneous solution was obtained. Finally, 120 μl of pure isopropanol was added and mixed by gentle pipetting. This stock solution was then used to produce various fatty acid methyl ester dilution emulsions in 24-well plate assays.
To each well, fatty acid emulsions or control emulsions were added and rapidly mixed by swirling. Nematode viability was scored by visual observation and motility assays at various time points 24 hours following addition of emulsions or controls. The fatty acid emulsions tested were methyl esters of nonanoic (pelargonic) acid, ricinoleic acid, vernolic acid, linoleic acid, oleic acid, and control emulsions lacking fatty acids.

M. javanica = assay: Nematicidal activity of fatty acid methyl ester emulsions against root knot nematode J2 larvae (Example 6); type: cell-based, Meloidogyne javanica; settings: 0.1% emulsion; 48 hours incubation, counted about 24 hours after transfer to plates
Experimental: as §1
(§2) Meloidogyne incognita and javanica were prepared from tomato roots. The roots were bleached and the debris was separated from the J2 larvae and eggs by filtration followed by sucrose density gradient centrifugation. Eggs were hatched over 4 days at 15° C. and the J2 larvae were collected by passage though a filter, followed by centrifugation.
(§3) Nematodes and emulsions were incubated with shaking at room temperature for 48 hours. The contents of each well were transferred to a small spot on individual NGM plates lacking bacteria. About 24 hours after the transfer to plates, worms on and off the inoculation spot were counted as not viable or viable, respectively. Worms were considered viable if they had crawled away from the inoculation spot, or if they were moving. Worms were considered non-viable if they remained at the inoculation spot.

M. incognita = assay: as above; type: cell-based, Meloidogyne incognita; settings: 0.1% emulsion; 48 hours incubation, counted about 24 hours after transfer to plates
Experimental: as §1, §2, §3

tomato seedlings = assay: Phytotoxicity evaluation on tomato seedlings; type: in vivo; settings: 250 μl of 1% emulsion applied to stem-media interface of two-week seedlings
Experimental: Sterilized tomato seeds were germinated in magenta jars containing Gamborg's agar media. After two weeks of growth, seedlings were treated with 250 μl of 1% fatty acid methyl ester emulsion (nonanoic acid, ricinoleic acid, ricinelaidic acid, oleic acid, or a control emulsion lacking any fatty acid), applied directly to the stem-media interface. Tomato seedlings were scored at various times after application of emulsions.

C. elegans [3] = assay: Nematicidal activity of fatty acid methyl ester emulsions, spectrum (Example 8); type: cell-based, Caenorhabditis elegans; settings: C. elegans mixed stage
Experimental: (§4) Briefly, the indicated fatty acid emulsions were added and rapidly mixed by swirling. Nematode viability was scored by visual observation and motility assays 24 hours following addition of emulsions (48 hours for plant parasitic nematodes Meloidogyne and Heterodera species). The fatty acid emulsions tested were methyl esters of nonanoic (pelargonic) acid, ricinelaidic acid, ricinoleic acid, vernolic acid, linoleic acid, and oleic acid. […] Results shown are mean % values obtained from multiple independent experiments
(§5) The Caenorhabiditis elegans were mixed stage populations. Similar effects seen on several other free-living nematode species. The Parastrongyloides trichosuri (parasite of Australian bushtail possum) were dauer-like infective 3rd stage larva. Similar effects are also seen against free-living stages. The Meloidogyne incognita and Meloidogyne javanica (root knot nematode) were 2nd stage juveniles (dauer-like infective stage). The Heterodera glycines (soybean cyst nematode) were 2nd stage juveniles (dauer-like infective stage). Finally, the Pratylenchus scribneri (corn lesion nematode) were mixed stage populations.

P. trichosuri = assay: as above; type: cell-based, Parastrongyloides trichosuri; settings: P. trichosuri infective 3rd stage larva
Experimental: as §4, §5

H. glycines = assay: as above; type: cell-based, Heterodera glycines; settings: H. glycines 2nd stage juveniles, scored at 48 hours
Experimental: as §4, §5

P. scribneri = assay: as above; type: cell-based, Pratylenchus scribneri; settings: P. scribneri mixed stage
Experimental: as §4, §5

B. malayi = assay: Nematicidal activity of tween-based emulsions against microfilarial nematodes; type: cell-based, Brugia malayi
Experimental: To each well, tween-based fatty acid emulsions were added and rapidly mixed by swirling. Nematode microfilaria viability was scored by visual observation of motility at 24 and 48 hours following addition of emulsions. The fatty acid emulsions tested were methyl esters of ricinoleic acid, vernolic acid, ricinelaidic acid, oleic acid, and control emulsions lacking fatty acids. The results of this study are presented in Table 7 as the percentage of non-motile microfilaria 24 hours after inoculation and in Table 8 as the percentage of non-motile microfilaria 48 hours after inoculation

Compound: CCCCCCCC/C=C\CCCCCCCC(=O)OC [Oleic Acid (C18-methyl ester), oleic acid methyl ester, reference compound]
- Rescue of the delta-12 FAT RNAi feeding phenotype (C. elegans [1]): does not rescue
- Percentage of Worm Death (C. elegans [2]; 0.003% emulsion, 1 hr): 0-5%
- Percentage of Worm Death (C. elegans [2]; 0.003% emulsion, 6 hr): 0-5%
- Percentage of Worm Death (C. elegans [2]; 0.003% emulsion, 24 hr): 0-5%
- Percentage of Worm Death (C. elegans [2]; 0.1% emulsion, 1 hr): 0-5%
- Percentage of Worm Death (C. elegans [2]; 0.1% emulsion, 6 hr): 0-5%
- Percentage of Worm Death (C. elegans [2]; 0.1% emulsion, 24 hr): 0-5%
- M. javanica (% not viable) (M. javanica): 20%
- M. incognita (% not viable) (M. incognita): 25%
- Visible effects on tomato seedlings (tomato seedlings): none of the tomatoes treated with the other fatty acid methyl ester emulsions showed visible effects
- % Worm Death (24 hr) (C. elegans [3]; 0.01% solution): <10%
- % Worm Death (24 hr) (C. elegans [3]; 0.1% solution): <10%
- % Worm Death (24 hr) (P. trichosuri; 0.01% solution): ˜10%
- % Worm Death (24 hr) (P. trichosuri; 0.1% solution): ˜10%
- % Worm Death (24 hr) (H. glycines; 0.001% solution): <10%
- % Worm Death (24 hr) (H. glycines; 0.01% solution): <10%
- % Worm Death (24 hr) (H. glycines; 0.1% solution): <10%
- % Worm Death (24 hr) (P. scribneri; 0.01% solution): <20%
- % Worm Death (24 hr) (P. scribneri; 0.1% solution): <20%
- percentage of non-motile microfilaria (B. malayi; 24 hrs post-inoculation, 0.0008%): 0%
- percentage of non-motile microfilaria (B. malayi; 24 hrs post-inoculation, 0.0016%): 0%
- percentage of non-motile microfilaria (B. malayi; 24 hrs post-inoculation, 0.003%): 0%
- percentage of non-motile microfilaria (B. malayi; 24 hrs post-inoculation, 0.005%): 0%
- percentage of non-motile microfilaria (B. malayi; 24 hrs post-inoculation, 0.0067%): 0%
- percentage of non-motile microfilaria (B. malayi; 24 hrs post-inoculation, 0.008%): 0%
- percentage of non-motile microfilaria (B. malayi; 48 hrs post-inoculation, 0.0008%): 0%
- percentage of non-motile microfilaria (B. malayi; 48 hrs post-inoculation, 0.0016%): 0%
- percentage of non-motile microfilaria (B. malayi; 48 hrs post-inoculation, 0.003%): 0%
- percentage of non-motile microfilaria (B. malayi; 48 hrs post-inoculation, 0.005%): 0%
- percentage of non-motile microfilaria (B. malayi; 48 hrs post-inoculation, 0.0067%): 0%
- percentage of non-motile microfilaria (B. malayi; 48 hrs post-inoculation, 0.008%): 0%

Source: patent publication US6903052B2, “Nematicidal compositions and methods” (Divergence, Inc., priority 2002, dated 2005)
